# Assay: Viscosity of the amphipathic compound
# Type: physicochemical
# Conditions: not given
# Description: Specifically, the amphipathic compound represented by the general formula (I) has a viscosity of preferably 15.0 Pa·s or less, more preferably 11.0 Pa·s or less, further preferably 6.0 Pa·s or less, by itself, as measured at 25° C. This viscosity can be measured using, for example, a viscosity and viscoelasticity measuring apparatus (Gemini II, Malvern Instruments Ltd.) at a temperature of 25° C.
row,Viscosity [Pa·s],SMILES
1,1.7,"CC(=CCCC(=O)OCC(CO)(CO)CO)CCCC(C)CCCC(C)CCCC(C)C (stereo not shown) [C22 pentaerythritol ester, mono-O-(5,9,13,17-tetramethyloctadec-4-enoyl)pentaerythritol]"

# Same assay, conditions: at shear velocity of 92 1/s
row,Viscosity [Pa·s],SMILES
1,0.37,"CC(C)=CCC/C(C)=C/CC/C(C)=C/CCC(C)=CCCC(=O)OCC(O)CO (stereo not shown) [glyceryl geranylgeranylacetate, mono-O-(5,9,13,17-tetramethyloctadeca-4,8,12,16-tetraenoyl)glycerol]"

# Assay: Gel formation test of precursor formulations in excess aqueous medium
# Type: physicochemical
# Conditions: self-organizing lipid (SOL) criterion
# Description: The precursor formulations of Nos. 1 to 75 thus prepared were subjected to a gel formation test. An aliquot (about 100 to 300 mg) of each precursor formulation was added to an excess aqueous medium (about 0.5 to 2 mL of injectable water for Nos. 1 to 61 and 64 to 75 or phosphate buffered saline (PBS) of pH 7.4 for Nos. 62 and 63) in a vial, and mixed at room temperature (25° C.) with a spatula or a vortex mixer. As a result, all the precursor formulations of Nos. 1 to 75 produced gel compositions having colorless transparent to white turbid appearance separated in the excess aqueous medium. […]
row,SMILES,gel formation of the lipid used alone by mixing with water
1,"CC(=CCCC(=O)OCC(C)O)CCCC(C)CCCC(C)C (stereo not shown) [C17 propylene glycol ester, mono-O-(5,9,13-trimethyltetradec-4-enoyl)propylene glycol]",do not form a gel
2,"CC(=CCCC(=O)OCCO)CCCC(C)CCCC(C)CCCC(C)C (stereo not shown) [C22 ethylene glycol ester, mono-O-(5,9,13,17-tetramethyloctadec-4-enoyl)ethylene glycol]",do not form a gel
3,"CC(=CCCC(=O)OCCC(C)(C)O)CCCC(C)CCCC(C)CCCC(C)C (stereo not shown) [C22 isoprene glycol ester, mono-O-(5,9,13,17-tetramethyloctadec-4-enoyl)3-methyl-1,3-butanediol]",do not form a gel
4,"CC(C)CCCC(C)CCCC(C)CCCC(C)CCCC(=O)OCC(C)O (stereo not shown) [saturated C22 propylene glycol ester, mono-O-(5,9,13,17-tetramethyloctadecanoyl)propylene glycol]",do not form a gel

# Results, then the molecule that gave them:
row,gel formation of the lipid used alone by mixing with water,SMILES
1,do not form a gel,"C/C(=C\C(=O)OCC(C)O)CCCC(C)CCCC(C)CCCC(C)C (stereo not shown) [C20 propylene glycol ester, mono-O-(3,7,11,15-tetramethylhexadec-2-enoyl)propylene glycol]"
2,do not form a gel,"CC(=CCC(=O)OCC(C)O)CCCC(C)CCCC(C)CCCC(C)C (stereo not shown) [C21 propylene glycol ester, mono-O-(4,8,12,16-tetramethylheptadec-3-enoyl)propylene glycol]"
3,do not form a gel,"CC(=CCCC(=O)OCCC(C)O)CCCC(C)CCCC(C)CCCC(C)C (stereo not shown) [C22 butylene glycol ester, mono-O-(5,9,13,17-tetramethyloctadec-4-enoyl)1,3-butylene glycol]"
4,do not form a gel,"CC(C)CCCC(C)CCCC(C)CCCC(C)CC(=O)OCC(C)O (stereo not shown) [saturated C20 propylene glycol ester, mono-O-(3,7,11,15-tetramethylhexadecanoyl)propylene glycol]"

# — patent publication US20230105725A1, “HIGHLY SAFE NON-LAMELLAR LIQUID CRYSTAL FORMING COMPOSITION” (FARNEX INCORPORATED, priority 2020, published 2023)
